This experiment relates to human mammary cancer-derived KPL-4 cells. The experiment can be described thus: Cell growth inhibition test with KPL-4 cells (WST-1). Conditions: KPL4, 72 hours, read-out: 50% growth inhibition concentration (GI50). In kind it is cell-based. As to the method:
In a 96-well plate (Nunc), human mammary cancer-derived KPL-4 cells were sown in an amount of 2000 cells/well, and pre-incubated in 10% fetal calf serum (FCS)-containing Dulbecco Modified Eagle Medium (DMEM) (incubation medium) in a 5% carbon dioxide incubator at 37° C. for 24 hours. A dimethylsulfoxide (DMSO) solution of a test compound controlled at 10 mmol/L was stepwise diluted with the incubation medium, and added to each well in a total amount of 100 μL/well, and incubated in the 5% carbon dioxide incubator at 37° C. for 72 hours. After the incubation, WST-1 {4-[3-(4-Iodophenyl)-2-(4-nitrophenyl)-2H-5-tetrazolio]-1,3-benzene disulfonate}-labeled mixture (Rosh Diagnostic) diluted 2-fold with the incubation medium was added thereto in an amount of 20 μL/well, and incubated in the 5% carbon dioxide incubator at 37° C. for 1 hour. Using a microplate spectrophotometer (Biorad's Model 550), the absorbance at 450 nm and 655 nm of each well was measured. The cell growth inhibition activity of the test compound was indicated by the 50% growth inhibition concentration (GI50) thereof. A method of calculating GI50 is described. The absorbance at 655 nm of each well was subtracted from the absorbance at 450 nm thereof to give a value (absorbance difference). The absorbance difference obtained with the cells without being treated with the test compound was taken as 100%, and this was compared with the absorbance difference obtained with the cells treated with the test compound to give the concentration of the compound for 50% cell growth inhibition, and this is referred to as GI50.
On the technique in general: Formazan colour is commonly taken as a measure of viable cells.
In the case of `COC(=O)Cc1c(-c2ccccc2)c(O)cc(O)c1-c1ccccc1` [Compound 11, Methyl 3,5-dihydroxy-2,6-diphenylphenylacetate], the GI50 is at most 50 µM. For `CCc1c(O)cc(O)c(-c2cccc(OCc3cccnc3)c2)c1CCOCC(O)CO` (centres unmarked) [Compound 191, 5-[2-(2,3-Dihydroxypropoxy)ethyl]-6-ethyl-4-[3-(pyridin-3-ylmethyloxy)phenyl]benzene-1,3-diol] the value was at most 50 µM; for `CN(C)CCc1c(Br)c(O)cc(O)c1-c1ccccc1` [Compound 99, 6-Bromo-5-[2-(N,N-dimethylamino)ethyl]-4-phenylbenzene-1,3-diol], at most 50 µM.

Consider `O=C(Cc1c(Br)c(O)cc(O)c1-c1ccccc1)NC1CCN(Cc2ccccc2)CC1` [Compound 18, N-(1-benzylpiperidin-4-yl)-2-(2-bromo-3,5-dihydroxy-6-phenylphenyl)acetamide], for which the GI50 was at most 50 µM. The result for `COC(=O)CCc1ccc(-c2c(O)cc(O)c(Br)c2CC(=O)OC)o1` [Compound 267, Methyl 3-{5-[5-bromo-2,4-dihydroxy-6-(methoxycarbonylmethyl)phenyl]furan-2-yl}propanoate] reads at most 50 µM; that for `CC(=O)c1c(O)cc(O)c(-c2ccccc2)c1CCCO` [Compound 124, 1-[2,4-Dihydroxy-6-(3-hydroxypropyl)-5-phenylphenyl]ethanone], at most 50 µM. The result for `CN(CCc1ccccn1)C(=O)Cc1c(Br)c(O)cc(O)c1-c1ccccc1` [Compound 89, 2-(2-Bromo-3,5-dihydroxy-6-phenylphenyl)-N-methyl-N-[2-(pyridin-2-yl)ethyl]acetamide] reads at most 50 µM; that for `CCc1c(O)cc(O)c(-c2ccccc2)c1CCC(O)C(CO)CO` (centres unmarked) [Compound 185, 6-Ethyl-5-[3,5-dihydroxy-4-(hydroxymethyl)pentyl]-4-phenylbenzene-1,3-diol], at most 50 µM; that for `CCc1c(O)cc(O)c(-c2ccco2)c1CCOC` [Compound 244, 6-Ethyl-4-(furan-2-yl)-5-(2-methoxyethyl)benzene-1,3-diol], at most 50 µM. The result for `CC(=O)CCc1c(Br)c(O)cc(O)c1-c1ccccc1` [Compound 114, 4-(2-Bromo-3,5-dihydroxy-6-phenylphenyl)butan-2-one] reads at most 50 µM; that for `CCc1c(O)cc(O)c(-c2cccc(OCc3ccccn3)c2)c1CCOCC(O)CO` (centres unmarked) [Compound 190, 5-[2-(2,3-Dihydroxypropoxy)ethyl]-6-ethyl-4-[3-(pyridin-2-ylmethyloxy)phenyl]benzene-1,3-diol], at most 50 µM; that for `COCCc1c(OC)c(O)cc(O)c1-c1ccccc1` [Compound 129, 6-Methoxy-5-(2-methoxyethyl)-4-phenylbenzene-1,3-diol], at most 50 µM.

Consider `CCc1c(O)cc(O)c(-c2ccccc2)c1CCOCC(=O)N(C)C` [Compound 157, 2-[2-(2-Ethyl-3,5-dihydroxy-6-phenylphenyl)ethoxy]-N,N-dimethylacetamide], for which the GI50 was at most 50 µM. For `COc1cc(NC(=O)Cc2c(Br)c(O)cc(O)c2-c2ccco2)cc(OC)c1` [Compound 242, 2-[2-Bromo-6-(furan-2-yl)-3,5-dihydroxyphenyl]-N-(3,5-dimethoxyphenyl)acetamide] the value was at most 50 µM. For `O=C(NCc1ccccc1)c1c(Br)c(O)cc(O)c1-c1ccccc1` [Compound 51, N-benzyl-2-bromo-3,5-dihydroxy-6-phenylbenzamide] the value was at most 50 µM; for `N#Cc1cccnc1N1CCN(C(=O)Cc2c(Br)c(O)cc(O)c2-c2ccccc2)CC1` [Compound 90, 2-(2-Bromo-3,5-dihydroxy-6-phenylphenyl)-1-[4-(3-cyanopyridin-2-yl)piperazin-1-yl]ethanone], at most 50 µM. The result for `COC(=O)Cc1cc(O)cc(O)c1-c1cccc(C=NO)c1` [Compound 3, Methyl 3,5-dihydroxy-2-[3-(hydroxyiminomethyl)phenyl]phenylacetate] reads at most 50 µM; that for `COCCc1c(Br)c(O)cc(O)c1-c1ccccc1` [Compound 64, 6-Bromo-5-(2-methoxyethyl)-4-phenylbenzene-1,3-diol], at most 50 µM. Take `OCCc1c(Br)c(O)cc(O)c1-c1ccccc1` [Compound 62, 6-Bromo-5-(2-hydroxyethyl)-4-phenylbenzene-1,3-diol]: the GI50 was at most 50 µM. For `O=C(Cc1c(Br)c(O)cc(O)c1-c1ccccc1)N1CCN(C(=O)c2ccco2)CC1` [Compound 91, 2-(2-Bromo-3,5-dihydroxy-6-phenylphenyl)-1-[4-(2-furoyl)piperazin-1-yl]ethanone] the value was at most 50 µM; for `CCCN(C)C(=O)Cc1c(Br)c(O)cc(O)c1-c1ccccc1` [Compound 36, 2-(2-Bromo-3,5-dihydroxy-6-phenylphenyl)-N-methyl-N-propylacetamide], at most 50 µM.

As for `COCCNCCc1c(Br)c(O)cc(O)c1-c1ccccc1` [Compound 100, 6-Bromo-5-{2-[N-(2-methoxyethyl)amino]ethyl}-4-phenylbenzene-1,3-diol], the GI50 is at most 50 µM.

Consider `CCc1c(O)cc(O)c(-c2ccccc2)c1CC(O)CC(O)CO` (centres unmarked) [Compound 177, 6-Ethyl-4-phenyl-5-(2,4,5-trihydroxypentyl)benzene-1,3-diol], for which the GI50 was at most 50 µM.

For the molecule `CCc1c(O)cc(O)c(-c2ccccc2)c1CCC(O)C(O)CO` (centres unmarked) [Compound 181, 6-Ethyl-4-phenyl-5-(3,4,5-trihydroxypentyl)benzene-1,3-diol], the GI50 was at most 50 µM. The result for `COCCN(C)C(=O)Cc1c(C(C)=O)c(O)cc(O)c1-c1cccc(OC)c1` [Compound 141, 2-[2-Acetyl-3,5-dihydroxy-6-(3-methoxyphenyl)phenyl]-N-(2-methoxyethyl)-N-methylacetamide] reads at most 50 µM; that for `CCc1c(O)cc(O)c(-c2cccc(OCc3csc(C)n3)c2)c1CCOCC(O)CO` (centres unmarked) [Compound 193, 5-[2-(2,3-Dihydroxypropoxy)ethyl]-6-ethyl-4-[3-(2-methyl-1,3-thiazol-4-ylmethyloxy)phenyl]benzene-1,3-diol], at most 50 µM; that for `CCc1cc(-c2nc3ccccc3[nH]2)c(O)cc1O` [Compound 278, 4-Benzimidazol-2-yl-6-ethylbenzene-1,3-diol], at most 50 µM. With `COCCc1c(C(C)=O)c(O)cc(O)c1-c1cccc(C(=O)OC)c1` [Compound 119, Methyl 3-[5-acetyl-2,4-dihydroxy-6-(2-methoxyethyl)phenyl]benzoate], the GI50 is at most 50 µM. For `COC(=O)Cc1cc(O)cc(O)c1-c1cccc(OC(F)(F)F)c1` [Compound 74, Methyl 3,5-dihydroxy-2-[3-(trifluoromethoxy)phenyl]phenylacetate] the value was at most 50 µM; for `COCCNCc1c(Br)c(O)cc(O)c1-c1ccccc1` [Compound 103, 6-Bromo-5-[N-(2-methoxyethyl)aminomethyl]-4-phenylbenzene-1,3-diol], at most 50 µM. For `COCCOCCc1cc(OS(N)(=O)=O)cc(O)c1-c1ccccc1` [Compound 152, 3-(2-Methoxyethoxy)ethyl-2-phenyl-5-(sulfamoyloxy)phenol] the value was at most 50 µM; for `COC(=O)Cc1c(C)c(O)cc(O)c1-c1ccccc1` [Compound 56, Methyl 3,5-dihydroxy-6-methyl-2-phenylphenylacetate], at most 50 µM. For `COC(=O)Cc1c(Br)c(O)cc(O)c1-c1ccccc1` [Compound 10, Methyl 2-bromo-3,5-dihydroxy-6-phenylphenylacetate] the value was at most 50 µM; for `COC(=O)Cc1c(Cc2ccccc2)c(O)cc(O)c1-c1ccccc1` [Compound 70, Methyl 2-benzyl-3,5-dihydroxy-6-phenylphenylacetate], at most 50 µM; for `COCCc1c(Br)c(O)cc(O)c1-c1cccc(C(N)=O)c1` [Compound 117, 3-[5-Bromo-2,4-dihydroxy-6-(2-methoxyethyl)phenyl]benzamide], at most 50 µM.

In the case of `N#Cc1ccccc1N1CCN(C(=O)Cc2c(Br)c(O)cc(O)c2-c2ccccc2)CC1` [Compound 38, 2-(2-Bromo-3,5-dihydroxy-6-phenylphenyl)-1-[4-(2-cyanophenyl)piperazin-1-yl]ethanone], the GI50 was at most 50 µM.

On to `COCCc1c(C(C)=O)c(O)cc(O)c1-c1cccc(OCc2ccccc2)c1` [Compound 135, 1-[2,4-Dihydroxy-5-(3-benzyloxyphenyl)-6-(2-methoxyethyl)phenyl]ethanone], for which the GI50 is at most 50 µM. The result for `COC(=O)Cc1cc(O)cc(O)c1-c1ccc(OC)cc1` [Compound 82, Methyl 3,5-dihydroxy-2-(4-methoxyphenyl)phenylacetate] reads at most 50 µM.

`COCCOCc1c(Br)c(O)cc(O)c1-c1ccccc1` [Compound 71, 6-Bromo-5-[(2-methoxyethoxy)methyl]-4-phenylbenzene-1,3-diol]: the GI50 is at most 50 µM. For `CCc1c(O)cc(O)c(-c2cccc(-c3ccccc3)c2)c1CCOC` [Compound 132, 6-Ethyl-5-(2-methoxyethyl)-4-(3-phenylphenyl)benzene-1,3-diol] the value was at most 50 µM; for `COC(=O)Cc1cc(O)cc(O)c1-c1ccc(Oc2ccccc2)cc1` [Compound 80, Methyl 3,5-dihydroxy-2-(4-phenoxyphenyl)phenylacetate], at most 50 µM.

(Values after patent US7538241B2, “Hsp90 family protein inhibitors” (Kyowa Hakko Kogyo Co., Ltd., priority 2003, dated 2009).)
